Source: patent publication US11345681B1, “Inhibitors of fibroblast growth factor receptor kinases” (Kinnate Biopharma Inc., priority 2020, dated 2022)

Biological target: Wild type FGFR2 (Homo sapiens (Human), UniProt P21802)
Test: FGFR2 kinase assay (fluorescence-based microfluidic mobility shift assay)
Format: biochemical
Details: wild type FGFR2 0.06 nM, 100 μM ATP, 80 minutes at room temperature

Wild type FGFR2, sequence (P21802 22-821): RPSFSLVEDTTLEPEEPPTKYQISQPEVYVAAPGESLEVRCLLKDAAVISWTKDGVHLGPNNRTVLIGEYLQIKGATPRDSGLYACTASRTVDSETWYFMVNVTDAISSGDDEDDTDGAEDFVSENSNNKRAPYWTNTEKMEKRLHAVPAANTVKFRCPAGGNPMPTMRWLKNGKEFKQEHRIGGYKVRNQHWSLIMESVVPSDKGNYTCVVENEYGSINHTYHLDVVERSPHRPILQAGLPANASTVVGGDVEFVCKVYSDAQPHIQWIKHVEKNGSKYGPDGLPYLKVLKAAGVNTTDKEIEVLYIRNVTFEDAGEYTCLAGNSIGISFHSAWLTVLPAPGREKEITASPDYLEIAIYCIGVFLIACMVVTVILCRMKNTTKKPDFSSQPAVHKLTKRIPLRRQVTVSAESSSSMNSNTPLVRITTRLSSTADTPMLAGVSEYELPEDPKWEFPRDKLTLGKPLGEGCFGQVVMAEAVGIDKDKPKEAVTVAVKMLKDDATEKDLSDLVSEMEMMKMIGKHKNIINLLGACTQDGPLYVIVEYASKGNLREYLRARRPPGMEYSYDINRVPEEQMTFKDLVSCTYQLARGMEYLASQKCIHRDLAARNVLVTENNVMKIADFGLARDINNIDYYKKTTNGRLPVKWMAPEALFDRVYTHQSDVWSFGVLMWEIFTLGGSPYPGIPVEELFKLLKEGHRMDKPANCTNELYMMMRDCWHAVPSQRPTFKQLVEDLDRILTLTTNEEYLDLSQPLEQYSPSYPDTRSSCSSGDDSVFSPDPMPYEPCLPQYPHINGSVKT

| Compound | IC50 (class symbols) | IC50 (given as numeric bound) |
| --- | --- | --- |
| C=CC(=O)N1C[C@@H](n2nc(C#Cc3cc4ncc(C)cc4cc3F)c(C(N)=O)c2NC)C[C@@H]1COC [Example 236, 3-[2-(6-fluoro-3-methylquinolin-7-yl)ethynyl]-1-[(3S,5R)-5-(methoxymethyl)-1-(prop-2-enoyl)pyrrolidin-3-yl]-5-(methylamino)pyrazole-4-carboxamide] | ≤ 100 nM | – |
| C=CC(=O)N1C[C@@H](n2nc(C#Cc3c(F)cc4c(ncn4C)c3F)c(C(N)=O)c2NC)C[C@@H]1COC [Example 11] | ≤ 100 nM | – |
| C=CC(=O)N1C[C@@H](n2nc(C#Cc3cc4ncn(C)c4c(F)c3F)c(C(N)=O)c2NC)C[C@@H]1COC [Example 101, 3-[2-(6,7-Difluoro-1-methyl-1,3-benzodiazol-5-yl)ethynyl]-1-[(3S,5R)-5-(methoxymethyl)-1-(prop-2-enoyl)pyrrolidin-3-yl]-5-(methylamino)pyrazole-4-carboxamide] | ≤ 100 nM | – |
| C=CC(=O)N1C[C@@H](n2nc(C#Cc3ccc4c(nc(C5CC5)n4C)c3F)c(C(N)=O)c2NC)C[C@@H]1COC [Example 51, 1-((3S,5R)-1-Acryloyl-5-(methoxymethyl)pyrrolidin-3-yl)-3-((2-cyclopropyl-4-fluoro-1-methyl-1H-benzo[d]imidazol-5-yl)ethynyl)-5-(methylamino)-1H-pyrazole-4-carboxamide] | ≤ 100 nM | – |
| C=CC(=O)N1C[C@@H](n2nc(C#Cc3ccc4c(c3)nc(C3CC3)n4C)c(C(N)=O)c2NC)C[C@@H]1COC [Example 43, 3-[2-(2-cyclopropyl-1-methyl-1,3-benzodiazol-5-yl)ethynyl]-1-[(3S,5R)-5-(methoxymethyl)-1-(prop-2-enoyl)pyrrolidin-3-yl]-5-(methylamino)pyrazole-4-carboxamide] | ≤ 100 nM | – |
| C=CC(=O)N1C[C@@H](n2nc(C#Cc3c(F)cc4c(nc(C5CC5)n4CC)c3F)c(C(N)=O)c2NC)C[C@@H]1COC [Example 45, 3-[2-(2-cyclopropyl-1-ethyl-4,6-difluoro-1,3-benzodiazol-5-yl)ethynyl]-1-[(3S,5R)-5-(methoxymethyl)-1-(prop-2-enoyl)pyrrolidin-3-yl]-5-(methylamino) pyrazole-4-carboxamide] | ≤ 100 nM | – |
| C=CC(=O)N1C[C@@H](n2nc(C#Cc3cc4ncn(C5CC5)c4c(F)c3F)c(C(N)=O)c2NC)C[C@@H]1C [Example 158, 3-[2-(1-cyclopropyl-6,7-difluoro-1,3-benzodiazol-5-yl)ethynyl]-1-[(3S,5S)-5-methyl-1-(prop-2-enoyl)pyrrolidin-3-yl]-5-(methylamino)pyrazole-4-carboxamide] | ≤ 100 nM | – |
| C=CC(=O)N1C[C@@H](n2nc(C#Cc3ccc4c(n3)nc(C)n4CC)c(C(N)=O)c2NC)C[C@@H]1COC [Example 39, 3-(2-[1-ethyl-2-methylimidazo[4,5-b]pyridin-5-yl]ethynyl)-1-[(3S,5R)-5-(methoxymethyl)-1-(prop-2-enoyl)pyrrolidin-3-yl]-5-(methylamino)pyrazole-4-carboxamide] | 100 to 1000 nM | – |
| C=CC(=O)N1C[C@@H](n2nc(C#Cc3cc4ncnn4cc3F)c(C(N)=O)c2NC)C[C@@H]1COC [Example 130, 3-(2-[6-Fluoro-[1,2,4]triazolo[1,5-a]pyridin-7-yl]-ethynyl)-1-[(3S,5R)-5-(methoxymethyl)-1-(prop-2-enoyl)pyrrolidin-3-yl]-5-(methylamino)pyrazole-4-carboxamide] | ≤ 100 nM | – |
| C=CC(=O)N1C[C@@H](n2nc(C#Cc3ccc4nccn4c3)c(C(N)=O)c2NC)C[C@@H]1COC [Example 55, 1-((3S,5R)-1-Acryloyl-5-(methoxymethyl)pyrrolidin-3-yl)-3-(imidazo[1,2-a]pyridin-6-ylethynyl)-5-(methylamino)-1H-pyrazole-4-carboxamide] | – | > 500 nM |
| C=CC(=O)N1C[C@@H](n2nc(C#Cc3cc4nc[nH]c4cc3F)c(C(N)=O)c2NC)C[C@@H]1COC [Example 90, 3-[2-(6-Fluoro-1H-1,3-benzodiazol-5-yl)ethynyl]-1-[(3S,5R)-5-(methoxymethyl)-1-(prop-2-enoyl)pyrrolidin-3-yl]-5-(methylamino)pyrazole-4-carboxamide] | ≤ 100 nM | – |
| C=CC(=O)N1C[C@@H](n2nc(C#Cc3c(F)cc4c(nc(C)n4CC)c3F)c(C(N)=O)c2NC)C[C@@H]1COC [Example 16, 1-((3S,5R)-1-acryloyl-5-(methoxymethyl)pyrrolidin-3-yl)-3-((1-ethyl-4,6-difluoro-2-methyl-1H-benzo[d]imidazol-5-yl)ethynyl)-5-(methylamino)-1H-pyrazole-4-carboxamide] | ≤ 100 nM | – |
| C=CC(=O)N1C[C@@H](n2nc(C#Cc3c(F)cc4[nH]c(C)nc4c3F)c(C(N)=O)c2NC)C[C@@H]1COC [Example 17] | ≤ 100 nM | – |
| C=CC(=O)N1C[C@@H](n2nc(C#Cc3cc4ncc(F)cc4cc3F)c(C(N)=O)c2NC)C[C@@H]1COC [Example 264, 3-[2-(3,6-Difluoroquinolin-7-yl)ethynyl]-1-[(3S,5R)-5-(methoxymethyl)-1-(prop-2-enoyl)pyrrolidin-3-yl]-5-(methylamino)pyrazole-4-carboxamide] | ≤ 100 nM | – |
| C=CC(=O)N1C[C@@H](n2nc(C#Cc3c(F)cc4c(ncn4C4CC4)c3F)c(C(N)=O)c2NC)C[C@H]1C [Example 165, 3-[2-(1-Cyclopropyl-4,6-difluoro-1,3-benzodiazol-5-yl)ethynyl]-1-[(3S,5R)-5-methyl-1-(prop-2-enoyl)pyrrolidin-3-yl]-5-(methylamino)pyrazole-4-carboxamide] | ≤ 100 nM | – |
| C=CC(=O)N1C[C@@H](n2nc(C#Cc3cc4ncn(C5CC5)c4cc3F)c(C(N)=O)c2NC)C[C@@H]1C(F)F [Example 170, 3-[2-(1-Cyclopropyl-6-fluoro-1,3-benzodiazol-5-yl)ethynyl]-1-[(3S,5R)-5-(difluoromethyl)-1-(prop-2-enoyl)pyrrolidin-3-yl]-5-(methylamino)pyrazole-4-carboxamide] | ≤ 100 nM | – |
| C=CC(=O)N1CC[C@H](n2nc(C#Cc3cc4ncn(CC)c4cc3F)c(C(N)=O)c2NC)C1 [Example 143, 3-[2-(1-Ethyl-6-fluoro-1,3-benzodiazol-5-yl)ethynyl]-5-(methylamino)-1-[(3S)-1-(prop-2-enoyl)pyrrolidin-3-yl]pyrazole-4-carboxamide] | ≤ 100 nM | – |
| C=C(F)C(=O)N1C[C@@H](n2nc(C#Cc3cc4ncn(CC)c4cc3Cl)c(C(N)=O)c2NC)C[C@@H]1COC [Example 129, 3-[2-(6-Chloro-1-ethyl-1,3-benzodiazol-5-yl)ethynyl]-1-[(3S,5R)-1-(2-fluoroprop-2-enoyl)-5-(methoxymethyl)pyrrolidin-3-yl]-5-(methylamino)pyrazole-4-carboxamide] | 100 to 1000 nM | – |
| C=CC(=O)N1C[C@@H](n2nc(C#Cc3cc4ncn(C5CC5)c4cc3Cl)c(C(N)=O)c2N)C[C@@H]1CO [Example 199, 5-Amino-3-[2-(6-chloro-1-cyclopropyl-1,3-benzodiazol-5-yl)ethynyl]-1-[(3S,5R)-5-(hydroxymethyl)-1-(prop-2-enoyl)pyrrolidin-3-yl]pyrazole-4-carboxamide] | ≤ 100 nM | – |
| C=CC(=O)N1C[C@@H](n2nc(C#Cc3cc4nc(C)n(C5CC5)c4cc3Cl)c(C(N)=O)c2N)C[C@@H]1[C@@H](C)O [Example 244, 1-((3S,5R)-1-Acryloyl-5-((R)-1-hydroxyethyl)pyrrolidin-3-yl)-5-amino-3-((6-chloro-1-cyclopropyl-2-methyl-1H-benzo[d]imidazol-5-yl)ethynyl)-1H-pyrazole-4-carboxamide] | ≤ 100 nM | – |
| C=CC(=O)N1C[C@@H](n2nc(C#Cc3c(F)cc4c(ncn4C4CC4)c3F)c(C(N)=O)c2N)C[C@@H]1COC [Example 189, 5-amino-3-[2-(1-cyclopropyl-4,6-difluoro-1,3-benzodiazol-5-yl)ethynyl]-1-[(3S,5R)-5-(methoxymethyl)-1-(prop-2-enoyl)pyrrolidin-3-yl]pyrazole-4-carboxamide] | ≤ 100 nM | – |
| C=CC(=O)N1C[C@@H](n2nc(C#Cc3c(F)cc4c(ncn4CC)c3F)c(C(N)=O)c2NCCO)C[C@@H]1COC [Example 116, 3-[2-(1-Ethyl-4,6-difluoro-1,3-benzodiazol-5-yl)ethynyl]-5-[(2-hydroxyethyl)amino]-1-[(3S,5R)-5-(methoxymethyl)-1-(prop-2-enoyl)pyrrolidin-3-yl]pyrazole-4-carboxamide] | ≤ 100 nM | – |
| C=CC(=O)N1CC(n2nc(C#Cc3cc4ncn(C5CC5)c4cc3Cl)c(C(N)=O)c2N)C1 [Example 208, 5-Amino-3-[2-(6-chloro-1-cyclopropyl-1,3-benzodiazol-5-yl)ethynyl]-1-[1-(prop-2-enoyl)azetidin-3-yl]pyrazole-4-carboxamide] | ≤ 100 nM | – |
| C=CC(=O)N1C[C@@H](n2nc(C#Cc3cc4nc(C)n(C5CC5)c4cc3F)c(C(N)=O)c2N)C[C@@H]1COC [Example 206, 5-Amino-3-[2-(1-cyclopropyl-6-fluoro-2-methyl-1,3-benzodiazol-5-yl)ethynyl]-1-[(3S,5R)-5-(methoxymethyl)-1-(prop-2-enoyl)pyrrolidin-3-yl]pyrazole-4-carboxamide] | ≤ 100 nM | – |
| C=CC(=O)N1C[C@@H](n2nc(C#Cc3cnc4c(c3)nc(C)n4CC)c(C(N)=O)c2NC)C[C@@H]1COC [Example 22, 1-((3S,5R)-1-acryloyl-5-(methoxymethyl)pyrrolidin-3-yl)-3-((3-ethyl-2-methyl-3H-imidazo[4,5-b]pyridin-6-yl)ethynyl)-5-(methylamino)-1H-pyrazole-4-carboxamide] | ≤ 100 nM | – |
| C=CC(=O)N1CC(n2nc(C#Cc3c(F)cc4c(ncn4C4CC4)c3F)c(C(N)=O)c2N)C1 [Example 210, 5-Amino-3-[2-(1-cyclopropyl-4,6-difluoro-1,3-benzodiazol-5-yl)ethynyl]-1-[1-(prop-2-enoyl)azetidin-3-yl]pyrazole-4-carboxamide] | ≤ 100 nM | – |
| C=CC(=O)N1C[C@@H](n2nc(C#Cc3c(F)cc4c(ncn4CC)c3F)c(C(N)=O)c2NC)C[C@@H]1COC(F)(F)F [Example 85, 3-[2-(1-Ethyl-4,6-difluoro-1,3-benzodiazol-5-yl)ethynyl]-5-(methylamino)-1-[(3S,5R)-1-(prop-2-enoyl)-5-[(trifluoromethoxy)methyl]pyrrolidin-3-yl]pyrazole-4-carboxamide] | ≤ 100 nM | – |
